Results from patent US20220143003A1, “COMPOSITIONS AND METHODS TO TREAT NON-ALCOHOLIC FATTY LIVER DISEASES (NAFLD)” (Coherus Biosciences, Inc., priority 2018, published 2022).

Experiments:
Type in all cases: in vivo, male C57BL/6JRj mice
DIO-NASH mice [1] = assay: Liver Galectin-3 IHC quantified by morphometry; details: at termination, mean of n=12-14; for Total terminal liver Galectin-3 (Average): % fractional area multiplied with liver weight; for Relative terminal liver Galectin-3 (Average): morphometry
Procedure: Protein markers of fibrosis (Col1a1), fibrogenesis (α-SMA) and inflammation (Gal-3) were assessed by immunohistochemistry. α-SMA and collagen type I increase in regulation of quiescent hepatic stellate cell activation into myofibroblast-like cells where activated hepatic stellate cells are the main collagen producing cells in the liver (Carpino et al 2005, Hou and Syn 2018) whereas Gal-3 is involved in mediating inflammatory response and considered as a macrophage activation marker (Sciacchitano et al, 2018). For morphometric quantification of liver Col1a1 (using antibody from Southern Biotech, Cat. #1310-01), alpha-smooth muscle actin (α-SMA; using antibody from Abcam, Cat. #Ab124964) and Galectin-3 (using antibody from Biolegend, Cat. #125402), IHC staining was performed using standard procedures. Briefly, after antigen retrieval and blocking of endogenous peroxidase activity, slides were incubated with primary antibody. For all IHC stains, the primary antibody was detected using a polymeric HRP-linker antibody conjugate and visualized using DAB as chromogen. Finally, sections were counterstained in hematoxylin and cover-slipped before scanning.
Quantitative assessment of immunoreactivity is evaluated as follows. IHC-positive staining is quantified by image analysis using the Visiomorph software (Visiopharm, Denmark). Visiomorph protocols are designed to analyze the virtual slides in two steps: 1. Crude detection of tissue at low magnification (1× objective). The liver capsule is excluded. 2. Detection of IHC-positive staining (e.g. green; collagen 1 IHC), tissue (e.g. red) and fat (e.g. pink) at high magnification (10×objective). The quantitative estimate of IHC-positive staining is calculated as an area fraction (AF) according to the following formula:
Terminal liver Galectin-3 was quantified by morphometry. Relative terminal liver Galectin-3 (% fractional area) is expressed as mean of n=12-14+SEM.
Total terminal Galectin-3 values are in milligrams (% fractional area multiplied with liver weight) and expressed as mean of n=12-14+SEM.

DIO-NASH mice [2] = assay: 4 h fasted blood glucose; details: group mean
DIO-NASH mice [3] = assay: Liver hydroxyproline (HP) at termination, colorimetric assay; details: for Relative liver hydroxyproline (HP) at termination / Total liver hydroxyproline (HP) at termination: group mean
Procedure: The liver post-biopsy for histological analyses was removed by dissection from the left lateral lobe, fixated in 4% formalin for 20-24 h, and subsequently embedded in paraffin. Liver biopsies for liver triglycerides and total cholesterol were dissected from the medial lobe, snap frozen in liquid nitrogen, and stored at −80° C., while liver biopsies for hydroxyproline were dissected from the caudal lobe (the entire lobe), snap frozen in liquid nitrogen and stored at −80° C. Finally, a liver sample for RNA isolation and gene expression analysis was dissected from the left lateral lobe, snap frozen in liquid nitrogen, and stored at −80° C. until processing.
For liver hydroxyproline (HP; a protein marker of fibrosis) quantification, liver samples were homogenized in 6 M HCl and hydrolyzed to degrade collagen. The samples were centrifuged, and the hydroxyproline content measured in duplicates in the supernatant, using a colorimetric assay (Quickzyme Biosciences) according to the manufacturer's instructions.
Relative liver hydroxyproline (HP) (μg/mg of liver) at termination. Values expressed as mean of n=12-14+SEM.
Total liver hydroxyproline (HP) (μg/liver) at termination. Values expressed as mean of n=12-14+SEM.

DIO-NASH mice [4] = assay: Fibrosis stage, Sirius red histopathological scoring of pre- and post-biopsies; details: post- vs pre-study biopsy, trend, p=0.07
Procedure: Three weeks prior to study start, a pre-biopsy was performed to confirm NASH and for study inclusion of NASH-affected mice only. Briefly, mice were anesthetized with isoflurane (2-3%) in 100% oxygen. A small abdominal incision was made in the midline and the left lateral lobe of the liver exposed. A cone shaped wedge of liver tissue (approximately 50 mg) was excised from the distal portion of the lobe and fixated in 10% neutral buffered formalin (4% formaldehyde) for histopathological analyses. The cut surface of the liver was instantly electro-coagulated using bipolar coagulation (ERBE VIO 100 electrosurgical unit). The liver was returned to the abdominal cavity, the abdominal wall sutured, and the skin closed with staplers. For post-operative recovery, mice received carprofen (5 mg/ml-0.01 ml/10 g) administered subcutaneously on the day of operation and on post-operation day 1 and 2. For Sirius red staining, slides were incubated in Weigert's iron hematoxylin, washed in tap water, stained in Picro-Sirius red and washed twice in acidified water. […] For scoring of NAFLD Activity Score (NAS) and fibrosis stage, HE and Sirius red stained liver sections, respectively, were scored by a histopathology specialist as outlined in Table 10 using the clinical criteria outlined by Kleiner et al. (2005). […] Fibrosis stage is evaluated separately from NAS.

DIO-NASH mice [5] = assay: Oral glucose tolerance test (OGTT), week 7; details: 6 h fasted, oral glucose 2 g/kg, group mean
Procedure: Animals were fasted 6 hours prior to oral glucose administration (2 g/kg). At the various time points after glucose administration, blood samples were collected into heparinized glass capillary tubes and immediately suspended in glucose/lactate system solution buffer (EKF-diagnostics, Germany). Blood glucose (BG) was measured using a BIOSEN c-Line glucose meter (EKF-diagnostics, Germany) according to the manufacturer's instructions. After the last blood sample, the animals were returned to the normal feeding schedule. The order of the animals were randomized before the procedure and mice were dosed with compounds just after the −60 minutes blood sample.
Oral glucose tolerance test (OGTT) in week 7. Temporal course of blood glucose levels during 6 h fasted OGTT. Oral glucose bolus (2 g/kg) at t=0 min.
Area under the curve calculated from the temporal course from 0-180 min OGTT. Values expressed as mean of n=12-14+SEM.

DIO-NASH mice [6] = assay: Plasma triglycerides (TG) at termination; details: group mean
Procedure: For plasma biochemistry, tail blood was drawn directly through the capillary of a Microvette/Vacuette of the right dimension and anticoagulant and mixed by inversion 5 times. Blood was placed at 4° C. until centrifugation at 3000×g for 10 minutes at 4° C. The plasma supernatants were transferred to new tubes and immediately frozen on dry ice and stored at −80° C. until analysis.
Mouse insulin was measured in single determinations using the MSD platform (Meso Scale Diagnostics).
Plasma triglycerides (TG) at termination (mmol/L). Values expressed as mean of n=12-14+SEM.

[7] = at baseline, CHS-131 High dose (alone or combined)
[8] = week 12, CHS-131 High dose (alone or combined)
[9] = CHS-131 High dose (alone or combined)

O=S(=O)(Nc1cc(Cl)c(Oc2cnc3ccccc3c2)c(Cl)c1)c1ccc(Cl)cc1Cl [CHS-131]
Total terminal liver Galectin-3 (Average) (DIO-NASH mice [1]; CHS-131 High dose + Vehicle): 90.6 milligrams
Relative terminal liver Galectin-3 (Average) (DIO-NASH mice [1]; CHS-131 High dose + Vehicle): 2.79 % fractional area
Total terminal liver Galectin-3 (Average) (DIO-NASH mice [1]; CHS-131 Low dose + Vehicle): 93.8 milligrams
Relative terminal liver Galectin-3 (Average) (DIO-NASH mice [1]; CHS-131 Low dose + Vehicle): 2.95 % fractional area
4 h fasted blood glucose (DIO-NASH mice [2]; [7]): 7.68 mmol/L
4 h fasted blood glucose (DIO-NASH mice [2]; at baseline, CHS-131 Low dose): 8.09 mmol/L
4 h fasted blood glucose (DIO-NASH mice [2]; [8]): 7.01 mmol/L
4 h fasted blood glucose (DIO-NASH mice [2]; week 12, CHS-131 Low dose): 7.31 mmol/L
Delta 4 h fasted blood glucose week 12 vs baseline (DIO-NASH mice [2]; [9]): -0.675 mmol/L
Delta 4 h fasted blood glucose week 12 vs baseline (DIO-NASH mice [2]; CHS-131 Low dose): -0.787 mmol/L
Marker of fibrosis hydroxyproline, effect in words (DIO-NASH mice [3]; DIO-NASH mice, 12 weeks of treatment, summary of data): positive trends for improvement
Improvement of liver hydroxyproline level at termination (marker of fibrosis) (DIO-NASH mice [3]; DIO-NASH mice, compared to DIO mice administered vehicle only, significant): 30%
Relative liver hydroxyproline (HP) at termination (DIO-NASH mice [3]; [9]): 0.0802 μg/mg of liver
Total liver hydroxyproline (HP) at termination (DIO-NASH mice [3]; [9]): 250 μg/liver
Relative liver hydroxyproline (HP) at termination (DIO-NASH mice [3]; CHS-131 Low dose): 0.0631 μg/mg of liver
Total liver hydroxyproline (HP) at termination (DIO-NASH mice [3]; CHS-131 Low dose): 205 μg/liver
Fibrosis stage: mice with improvement (DIO-NASH mice [4]): 5/13
Area under the curve 0-180 min OGTT (blood glucose) (DIO-NASH mice [5]; [9]): 1.66e+03
Area under the curve 0-180 min OGTT (blood glucose) (DIO-NASH mice [5]; CHS-131 Low dose): 1.53e+03
Plasma triglycerides (TG) at termination (DIO-NASH mice [6]; [9]): 0.651 mmol/L
Plasma triglycerides (TG) at termination (DIO-NASH mice [6]; CHS-131 Low dose): 0.715 mmol/L

OC[C@H]1O[C@@H](c2ccc(Cl)c(Cc3ccc(O[C@H]4CCOC4)cc3)c2)[C@H](O)[C@@H](O)[C@@H]1O [Empagliflozin, reference compound]
Total terminal liver Galectin-3 (Average) (DIO-NASH mice [1]): 99.9 milligrams
Relative terminal liver Galectin-3 (Average) (DIO-NASH mice [1]): 2.9 % fractional area
4 h fasted blood glucose (DIO-NASH mice [2]; [7]): 7.71 mmol/L
4 h fasted blood glucose (DIO-NASH mice [2]; [8]): 6.69 mmol/L
Delta 4 h fasted blood glucose week 12 vs baseline (DIO-NASH mice [2]; [9]): -1.03 mmol/L
Relative liver hydroxyproline (HP) at termination (DIO-NASH mice [3]; [9]): 0.0747 μg/mg of liver
Total liver hydroxyproline (HP) at termination (DIO-NASH mice [3]; [9]): 233 μg/liver
Area under the curve 0-180 min OGTT (blood glucose) (DIO-NASH mice [5]; [9]): 1.31e+03
Plasma triglycerides (TG) at termination (DIO-NASH mice [6]; [9]): 0.738 mmol/L

CSc1ccc(C(=O)/C=C/c2cc(C)c(OC(C)(C)C(=O)O)c(C)c2)cc1 [Elafibranor, reference compound]
Total terminal liver Galectin-3 (Average) (DIO-NASH mice [1]): 104 milligrams
Relative terminal liver Galectin-3 (Average) (DIO-NASH mice [1]): 2.43 % fractional area
4 h fasted blood glucose (DIO-NASH mice [2]; [7]): 7.68 mmol/L
4 h fasted blood glucose (DIO-NASH mice [2]; [8]): 6.41 mmol/L
Delta 4 h fasted blood glucose week 12 vs baseline (DIO-NASH mice [2]; [9]): -1.27 mmol/L
Relative liver hydroxyproline (HP) at termination (DIO-NASH mice [3]; [9]): 0.0389 μg/mg of liver
Total liver hydroxyproline (HP) at termination (DIO-NASH mice [3]; [9]): 164 μg/liver
Area under the curve 0-180 min OGTT (blood glucose) (DIO-NASH mice [5]; [9]): 1.35e+03
Plasma triglycerides (TG) at termination (DIO-NASH mice [6]; [9]): 0.525 mmol/L
